{"source": "paper PMC5218480", "about": "(PLoS ONE, 2017)", "system": "MV-4-11 cells", "test": "Gene expression microarray analysis (Affymetrix PrimeView) and GSEA", "type": "cell-based, human", "design": "RFU PODN (11730768_x_at) / Fold change /veh PODN (11730768_x_at) / RFU LINC00158 (11744669_a_at) / Fold change /veh LINC00158 (11744669_a_at) / RFU DUSP10 (11751237_a_at) / Fold change /veh DUSP10 (11751237_a_at) / RFU ID3 (11757404_x_at) / Fold change /veh ID3 (11757404_x_at) / RFU PLEKHG5 (11737974_s_at) / Fold change /veh PLEKHG5 (11737974_s_at) / RFU LRRC4B (11730491_at) / Fold change /veh LRRC4B (11730491_at) / RFU GIMAP4 (11747438_a_at) / Fold change /veh GIMAP4 (11747438_a_at) / RFU KRT8 (11758183_x_at) / Fold change /veh KRT8 (11758183_x_at) / RFU CNN1 (11734310_a_at) / Fold change /veh CNN1 (11734310_a_at) / RFU VPS37D (11726825_at) / Fold change /veh VPS37D (11726825_at) / RFU C10orf10 (11716522_x_at) / Fold change /veh C10orf10 (11716522_x_at) / RFU KIR2DL2 /// KIR2DL4 /// KIR2DL5A /// KIR2DL5B /// KIR2DS1 /// KIR2DS2 /// KIR2DS3 /// KIR2DS4 /// KIR3DL3 /// KIR3DL3 /// KIR3DS1 (11738374_at) / Fold change /veh KIR2DL2 /// KIR2DL4 /// KIR2DL5A /// KIR2DL5B /// KIR2DS1 /// KIR2DS2 /// KIR2DS3 /// KIR2DS4 /// KIR3DL3 /// KIR3DL3 /// KIR3DS1 (11738374_at) / RFU C1QL1 (11718748_at) / Fold change /veh C1QL1 (11718748_at) / RFU TMPRSS4 (11747572_a_at) / Fold change /veh TMPRSS4 (11747572_a_at) / RFU HAMP (11756126_x_at) / Fold change /veh HAMP (11756126_x_at) / RFU RNFT2 (11725882_a_at) / Fold change /veh RNFT2 (11725882_a_at) / RFU NR4A2 (11747474_a_at) / Fold change /veh NR4A2 (11747474_a_at) / RFU ABCC12 (11746883_a_at) / Fold change /veh ABCC12 (11746883_a_at) / RFU TMEM136 (11760407_x_at) / Fold change /veh TMEM136 (11760407_x_at) / RFU CLDN22 /// WWC2 (11732394_at) / Fold change /veh CLDN22 /// WWC2 (11732394_at) / RFU HLA-DPB1 (11760878_x_at) / Fold change /veh HLA-DPB1 (11760878_x_at) / RFU SPINT1 (11716480_a_at) / Fold change /veh SPINT1 (11716480_a_at) / RFU GAP43 (11754022_s_at) / Fold change /veh GAP43 (11754022_s_at) / RFU A4GNT (11735810_at) / Fold change /veh A4GNT (11735810_at) / RFU PRB3 (11715151_x_at) / Fold change /veh PRB3 (11715151_x_at) / RFU TUBB4B (11761932_at) / Fold change /veh TUBB4B (11761932_at) / RFU CAPN14 (11732068_a_at) / Fold change /veh CAPN14 (11732068_a_at) / RFU TMCC2 (11721928_a_at) / Fold change /veh TMCC2 (11721928_a_at) / RFU IRGQ (11745062_a_at) / Fold change /veh IRGQ (11745062_a_at) / RFU FAM174B (11720279_a_at) / Fold change /veh FAM174B (11720279_a_at) / RFU TMPRSS4 (11748680_a_at) / Fold change /veh TMPRSS4 (11748680_a_at) / RFU FAM212B (11763350_a_at) / Fold change /veh FAM212B (11763350_a_at) / RFU PLEKHG5 (11743358_a_at) / Fold change /veh PLEKHG5 (11743358_a_at) / RFU ZSCAN30 (11745921_a_at) / Fold change /veh ZSCAN30 (11745921_a_at) / RFU CMKLR1 (11741424_a_at) / Fold change /veh CMKLR1 (11741424_a_at) / RFU LOC101060620 /// MAPK8IP1 (11723275_at) / Fold change /veh LOC101060620 /// MAPK8IP1 (11723275_at) / RFU SPTSSB (11747773_x_at) / Fold change /veh SPTSSB (11747773_x_at) / RFU PRSS12 (11739890_at) / Fold change /veh PRSS12 (11739890_at) / RFU BIN1 (11741810_x_at) / Fold change /veh BIN1 (11741810_x_at) / RFU WNT11 (11732464_a_at) / Fold change /veh WNT11 (11732464_a_at) / RFU C10orf10 (11716521_a_at) / Fold change /veh C10orf10 (11716521_a_at) / RFU C5orf56 (11738089_at) / Fold change /veh C5orf56 (11738089_at) / RFU CYB561 (11721691_x_at) / Fold change /veh CYB561 (11721691_x_at) / RFU ANKRD19P (11752326_a_at) / Fold change /veh ANKRD19P (11752326_a_at) / RFU OR2T12 /// OR2T33 /// OR2T8 (11738714_s_at) / Fold change /veh OR2T12 /// OR2T33 /// OR2T8 (11738714_s_at) / RFU VCAN (11748164_a_at) / Fold change /veh VCAN (11748164_a_at) / RFU JSRP1 (11732532_at) / Fold change /veh JSRP1 (11732532_at) / RFU KRTAP10-11 (11738290_x_at) / Fold change /veh KRTAP10-11 (11738290_x_at) / RFU MYO3A (11730013_a_at) / Fold change /veh MYO3A (11730013_a_at) / RFU EBF3 (11725865_a_at) / Fold change /veh EBF3 (11725865_a_at) / RFU CAMK2N1 (11719241_x_at) / Fold change /veh CAMK2N1 (11719241_x_at) / RFU C5orf56 (11738088_a_at) / Fold change /veh C5orf56 (11738088_a_at) / RFU OLFML3 (11715873_a_at) / Fold change /veh OLFML3 (11715873_a_at) / RFU LOC100653217 /// NTM (11731650_a_at) / Fold change /veh LOC100653217 /// NTM (11731650_a_at) / RFU MAPK11 (11762145_a_at) / Fold change /veh MAPK11 (11762145_a_at) / RFU FIZ1 (11724087_x_at) / Fold change /veh FIZ1 (11724087_x_at) / RFU OASL (11726364_x_at) / Fold change /veh OASL (11726364_x_at) / RFU SOX15 (11748057_x_at) / Fold change /veh SOX15 (11748057_x_at) / RFU CD79A (11719716_a_at) / Fold change /veh CD79A (11719716_a_at) / RFU HIST1H1D (11736915_at) / Fold change /veh HIST1H1D (11736915_at) / RFU CASKIN2 (11723855_a_at) / Fold change /veh CASKIN2 (11723855_a_at) / RFU LOC730098 (11760151_x_at) / Fold change /veh LOC730098 (11760151_x_at) / RFU OR4N2 (11742367_at) / Fold change /veh OR4N2 (11742367_at) / RFU PRRT2 (11749266_a_at) / Fold change /veh PRRT2 (11749266_a_at) / RFU SNX32 (11753110_a_at) / Fold change /veh SNX32 (11753110_a_at) / RFU CDHR5 (11726645_a_at) / Fold change /veh CDHR5 (11726645_a_at) / RFU RCAN1 (11760418_a_at) / Fold change /veh RCAN1 (11760418_a_at) / RFU FAM167A (11723789_a_at) / Fold change /veh FAM167A (11723789_a_at) / RFU FAM26E (11764081_at) / Fold change /veh FAM26E (11764081_at) / RFU ISYNA1 (11749810_s_at) / Fold change /veh ISYNA1 (11749810_s_at) / RFU ACY1 (11761880_at) / Fold change /veh ACY1 (11761880_at) / RFU 11764098_at / Fold change /veh 11764098_at / RFU SAMD14 (11745864_x_at) / Fold change /veh SAMD14 (11745864_x_at) / RFU NPB (11741838_a_at) / Fold change /veh NPB (11741838_a_at) / RFU TMPRSS6 (11731388_a_at) / Fold change /veh TMPRSS6 (11731388_a_at) / RFU KRTAP10-2 (11738614_at) / Fold change /veh KRTAP10-2 (11738614_at) / RFU ARHGAP8 /// PRR5-ARHGAP8 (11727945_x_at) / Fold change /veh ARHGAP8 /// PRR5-ARHGAP8 (11727945_x_at) / RFU KRTAP5-7 /// NADSYN1 (11734609_at) / Fold change /veh KRTAP5-7 /// NADSYN1 (11734609_at) / RFU RASL12 (11751679_a_at) / Fold change /veh RASL12 (11751679_a_at) / RFU CDKN2B (11736163_a_at) / Fold change /veh CDKN2B (11736163_a_at) / RFU PRF1 (11729649_at) / Fold change /veh PRF1 (11729649_at) / RFU, ZNF638 /// ZNF638-IT1 / Fold change vs veh, ZNF638 /// ZNF638-IT1 / RFU, PANK3 / Fold change vs veh, PANK3 / RFU, SH3YL1 / Fold change vs veh, SH3YL1 / RFU, ZEB2 / Fold change vs veh, ZEB2 / RFU, NRIP1 / Fold change vs veh, NRIP1 / RFU, PTTG1IP / Fold change vs veh, PTTG1IP / RFU, CAPN2 / Fold change vs veh, CAPN2 / RFU, MED14 / Fold change vs veh, MED14 / RFU, SNORA58 / Fold change vs veh, SNORA58 / RFU, C1orf63 / Fold change vs veh, C1orf63 / RFU, LRRFIP1 / Fold change vs veh, LRRFIP1 / RFU, NDUFAF7 / Fold change vs veh, NDUFAF7 / RFU, SLC12A2 / Fold change vs veh, SLC12A2 / RFU, IBTK / Fold change vs veh, IBTK / RFU, ESF1 / Fold change vs veh, ESF1 / Fold change vs veh, TMEM50B / RFU, TAOK1 / Fold change vs veh, TAOK1 / RFU, ACBD3 / Fold change vs veh, ACBD3 / RFU, TMA16 / Fold change vs veh, TMA16 / RFU, RWDD3 / Fold change vs veh, RWDD3 / RFU, BCAT1 / Fold change vs veh, BCAT1 / RFU, EDEM3 / Fold change vs veh, EDEM3 / RFU, TMEM33 / Fold change vs veh, TMEM33 / RFU, WDR75 / Fold change vs veh, WDR75 / RFU, AHCTF1 / Fold change vs veh, AHCTF1 / RFU, TFRC / Fold change vs veh, TFRC / RFU, ZDHHC17 / Fold change vs veh, ZDHHC17 / RFU, NOM1 / Fold change vs veh, NOM1 / RFU, ARL8B / Fold change vs veh, ARL8B / RFU, ZBTB11 / Fold change vs veh, ZBTB11 / RFU, TAMM41 / Fold change vs veh, TAMM41 / RFU, KIAA1704 /// LOC100996395 / Fold change vs veh, KIAA1704 /// LOC100996395 / RFU, ING1 / Fold change vs veh, ING1 / RFU, TRMT61B / Fold change vs veh, TRMT61B / RFU, FUBP3 / Fold change vs veh, FUBP3 / RFU, TP53 / Fold change vs veh, TP53 / RFU, TNKS2 / Fold change vs veh, TNKS2 / RFU, ZFP14 / Fold change vs veh, ZFP14 / RFU, ACTR2 / Fold change vs veh, ACTR2 / RFU, PPP3R1 / Fold change vs veh, PPP3R1 / RFU, PIK3R1 / Fold change vs veh, PIK3R1 / RFU, HNRNPA1 / Fold change vs veh, HNRNPA1 / RFU, RNF170 / Fold change vs veh, RNF170 / RFU, ZNF28 / Fold change vs veh, ZNF28 / RFU, RNGTT / Fold change vs veh, RNGTT / RFU, OGT / Fold change vs veh, OGT / RFU, BRD1 / Fold change vs veh, BRD1 / RFU, MARS / Fold change vs veh, MARS / RFU, ZNF655 / Fold change vs veh, ZNF655 / RFU, FAHD1 / Fold change vs veh, FAHD1 / RFU, BDP1 / Fold change vs veh, BDP1 / RFU, LRRCC1 / Fold change vs veh, LRRCC1 / RFU, ARID1A / Fold change vs veh, ARID1A / RFU, ZNF146 / Fold change vs veh, ZNF146 / RFU, ZNF330 / Fold change vs veh, ZNF330 / RFU, GPN3 / Fold change vs veh, GPN3 / RFU, C9orf123 / Fold change vs veh, C9orf123 / RFU, N4BP2L2 / Fold change vs veh, N4BP2L2 / RFU, ARFIP1 / Fold change vs veh, ARFIP1 / RFU, FAM179B / Fold change vs veh, FAM179B / RFU, BCL10 / Fold change vs veh, BCL10 / RFU, UHRF1BP1L / Fold change vs veh, UHRF1BP1L / RFU, BET1 / Fold change vs veh, BET1 / RFU, CNOT2 / Fold change vs veh, CNOT2 / RFU, ZNF268 / Fold change vs veh, ZNF268 / Fold change vs veh, ZNF507 / RFU, DGCR2 / Fold change vs veh, DGCR2 / RFU, WDSUB1 / Fold change vs veh, WDSUB1 / Fold change vs veh, HSP90B1 /// MIR3652 / RFU, ADSS / Fold change vs veh, ADSS / RFU, GK / Fold change vs veh, GK / RFU, ZNF148 / Fold change vs veh, ZNF148 / RFU, TAF9 / Fold change vs veh, TAF9 / RFU, SLC1A5 / Fold change vs veh, SLC1A5 / RFU, SLMO2 / Fold change vs veh, SLMO2 / RFU, ABCC4 / Fold change vs veh, ABCC4 / RFU, LOC101060439 /// RAP1B / Fold change vs veh, LOC101060439 /// RAP1B / RFU, RFX7 / Fold change vs veh, RFX7 / RFU, GTPBP10 / Fold change vs veh, GTPBP10 / RFU, CNEP1R1 / Fold change vs veh, CNEP1R1 / RFU, BIVM-ERCC5 /// ERCC5 / Fold change vs veh, BIVM-ERCC5 /// ERCC5 / RFU, ILF3 / Fold change vs veh, ILF3 / RFU 11762660_at / Fold change /veh 11762660_at / RFU VCAN (11757783_s_at) / Fold change /veh VCAN (11757783_s_at) / RFU DDX43 (11728927_at) / Fold change /veh DDX43 (11728927_at) / RFU KRT8 (11758188_x_at) / Fold change /veh KRT8 (11758188_x_at) / RFU NKD1 (11759106_at) / Fold change /veh NKD1 (11759106_at) / RFU SRD5A1 (11742802_a_at) / Fold change /veh SRD5A1 (11742802_a_at) / RFU TPSAB1 /// TPSB2 (11721975_s_at) / Fold change /veh TPSAB1 /// TPSB2 (11721975_s_at) / RFU GSTM3 (11746129_a_at) / Fold change /veh GSTM3 (11746129_a_at) / RFU IL23R (11737362_x_at) / Fold change /veh IL23R (11737362_x_at) / RFU TMEM51 (11727254_a_at) / Fold change /veh TMEM51 (11727254_a_at) / RFU PIWIL2 (11732686_x_at) / Fold change /veh PIWIL2 (11732686_x_at) / RFU ORM1 (11744905_x_at) / Fold change /veh ORM1 (11744905_x_at) / RFU CCDC152 (11743942_at) / Fold change /veh CCDC152 (11743942_at) / RFU ECM1 (11717891_a_at) / Fold change /veh ECM1 (11717891_a_at) / RFU IL23R (11748794_a_at) / Fold change /veh IL23R (11748794_a_at) / RFU TNFAIP8L3 (11732012_x_at) / Fold change /veh TNFAIP8L3 (11732012_x_at) / RFU MBOAT4 (11741988_at) / Fold change /veh MBOAT4 (11741988_at) / RFU 11764193_at / Fold change /veh 11764193_at / RFU TMEM53 (11763286_at) / Fold change /veh TMEM53 (11763286_at) / RFU MAGEB2 (11727129_at) / Fold change /veh MAGEB2 (11727129_at) / RFU TMEM200A (11744735_a_at) / Fold change /veh TMEM200A (11744735_a_at) / RFU CCDC152 (11751479_a_at) / Fold change /veh CCDC152 (11751479_a_at) / RFU FAM211A (11726209_a_at) / Fold change /veh FAM211A (11726209_a_at) / RFU RGS16 (11746705_a_at) / Fold change /veh RGS16 (11746705_a_at) / RFU VCAN (11755009_s_at) / Fold change /veh VCAN (11755009_s_at) / RFU RHOB (11743442_s_at) / Fold change /veh RHOB (11743442_s_at) / RFU RGS16 (11720943_a_at) / Fold change /veh RGS16 (11720943_a_at) / RFU RGS16 (11720944_at) / Fold change /veh RGS16 (11720944_at) / RFU, VPS4B / Fold change vs veh, VPS4B / RFU, CREB1 / Fold change vs veh, CREB1 / RFU, DNAJC13 / Fold change vs veh, DNAJC13 / RFU, GNAQ / Fold change vs veh, GNAQ / RFU, CDK5R1 / Fold change vs veh, CDK5R1 / RFU, ZRANB3 / Fold change vs veh, ZRANB3 / RFU, CUL4A / Fold change vs veh, CUL4A / RFU, CCNY / Fold change vs veh, CCNY / RFU, UFL1 / Fold change vs veh, UFL1 / RFU, COG3 / Fold change vs veh, COG3 / RFU, DIAPH2 / Fold change vs veh, DIAPH2 / RFU, SKA2 / Fold change vs veh, SKA2 / RFU, AFF3 / Fold change vs veh, AFF3 / RFU, LMF1 / Fold change vs veh, LMF1 / RFU, IPO11 / Fold change vs veh, IPO11 / RFU, DFFB / Fold change vs veh, DFFB / RFU, FOXP1 / Fold change vs veh, FOXP1 / RFU, CARD8 / Fold change vs veh, CARD8 / RFU, STRN3 / Fold change vs veh, STRN3 / RFU, ADK / Fold change vs veh, ADK / RFU, RASSF2 / Fold change vs veh, RASSF2 / RFU, WIPF1 / Fold change vs veh, WIPF1 / RFU, LARP1B / Fold change vs veh, LARP1B / RFU, RASA1 / Fold change vs veh, RASA1 / RFU, RB1 / Fold change vs veh, RB1 / RFU, PPFIA1 / Fold change vs veh, PPFIA1 / RFU, MAT2A / Fold change vs veh, MAT2A / RFU, CCT5 / Fold change vs veh, CCT5 / RFU, WDR92 / Fold change vs veh, WDR92 / RFU, CUX1 / Fold change vs veh, CUX1 / RFU, TTC7A / Fold change vs veh, TTC7A / RFU, TMEM135 / Fold change vs veh, TMEM135 / RFU, DEPTOR / Fold change vs veh, DEPTOR / RFU, CPM / Fold change vs veh, CPM / RFU, DNAJB6 / Fold change vs veh, DNAJB6 / RFU, CACNA2D3 / Fold change vs veh, CACNA2D3 / RFU, DTX4 / Fold change vs veh, DTX4 / RFU, TFCP2 / Fold change vs veh, TFCP2 / RFU, GMCL1 /// GMCL1P1 / Fold change vs veh, GMCL1 /// GMCL1P1 / RFU, AEBP2 / Fold change vs veh, AEBP2 / RFU, SNHG1 /// SNORD22 /// SNORD25 /// SNORD26 /// SNORD27 /// SNORD28 /// SNORD29 /// SNORD31 / Fold change vs veh, SNHG1 /// SNORD22 /// SNORD25 /// SNORD26 /// SNORD27 /// SNORD28 /// SNORD29 /// SNORD31 / Fold change (Aza/veh), C12orf56 (ProbeSet 11735607_a_at) / Fold change (ACY-1035/veh), C12orf56 (ProbeSet 11735607_a_at) / Fold change (Aza/veh), FGFR1OP (ProbeSet 11751329_s_at) / Fold change (ACY-1035/veh), FGFR1OP (ProbeSet 11751329_s_at) / Fold change (Aza/veh), VPS36 (ProbeSet 11739960_a_at) / Fold change (ACY-1035/veh), VPS36 (ProbeSet 11739960_a_at) / RFU SYPL1 (11715823_x_at) / Fold change /veh SYPL1 (11715823_x_at) / RFU IGFBP7 (11715501_s_at) / Fold change /veh IGFBP7 (11715501_s_at) / RFU REEP3 (11722064_at) / Fold change /veh REEP3 (11722064_at) / RFU IGLL1 (11728026_x_at) / Fold change /veh IGLL1 (11728026_x_at): dose or concentration left out as unconfirmed", "details": "MV-4-11 cells, 48 hours", "data": [{"compound": "Nc1ccc(-c2cccs2)cc1NC(=O)c1ccc2c(c1)cc(C1CC1)n2CCN1CCOCC1", "note": "[ACY-1035]", "values": [{"measurement": "RFU MAGEB2 (11727129_at)", "result": 5.89, "unit": "RFU"}]}]}
